Assay results taken from US12139475B2, “2-oxindole compounds” (CHEMOCENTRYX, INC., priority 2016, dated 2024).

The compounds below were run against T1, CCR(9) (Homo sapiens, UniProt P51686) (assay: Serum chemotaxis assay (MOLT-4 cells, TECK-induced migration, ChemoTX)). Conditions: MOLT-4 cells in human serum, migration to recombinant human TECK, 90 minutes at 37° C.
T1 construct: MOLT-4 cells were collected by centrifugation at 400×g at room temperature, then suspended at 50 million/ml in human serum; host or cells: MOLT-4
T1 sequence (P51686 1-369): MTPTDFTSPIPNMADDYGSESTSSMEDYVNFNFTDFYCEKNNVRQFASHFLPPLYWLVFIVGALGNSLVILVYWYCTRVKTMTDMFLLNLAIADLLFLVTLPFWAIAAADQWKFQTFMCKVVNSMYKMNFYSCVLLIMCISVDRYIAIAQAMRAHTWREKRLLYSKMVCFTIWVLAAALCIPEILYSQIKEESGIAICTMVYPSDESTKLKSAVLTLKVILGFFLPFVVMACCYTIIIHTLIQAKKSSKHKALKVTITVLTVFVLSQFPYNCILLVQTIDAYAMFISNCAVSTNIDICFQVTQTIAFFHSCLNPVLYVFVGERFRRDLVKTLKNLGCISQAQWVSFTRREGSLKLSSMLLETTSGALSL
Format: cell-based
Experimental: MOLT-4 cells were obtained from the American Type Culture Collection (Manassas, VA) and cultured in RPMI tissue culture medium supplemented with 10% fetal calf serum (FCS) in a humidified 5% CO2 incubator at 37° C. Recombinant human chemokine proteins TECK was obtained from R&D Systems (Minneapolis, MN). ChemoTX™ chemotaxis microchambers were purchased from Neuro Probe (Gaithersburg, MD). CyQUANT™ cell proliferation kits were purchased from Molecular Probes (Eugene, Oregon). Calcium indicator dye Fluo-4 AM was purchased from Molecular Devices (Mountain View, CA).
A serum chemotaxis assay was used to determine the efficacy of potential receptor antagonists at blocking the migration mediated through chemokine receptors, such as CCR(9). This assay was performed using the ChemoTX® microchamber system with a 5-μm pore-sized polycarbonate membrane. MOLT-4 cells were collected by centrifugation at 400×g at room temperature, then suspended at 50 million/ml in human serum, containing 50 mM HEPES (final pH of 7.2). The compound being tested or an equivalent volume of its solvent (DMSO) was then added to the cell/serum mixture at a final DMSO concentration of 0.125% (v/v), and this mixture was then incubated together at 37° C. for one hour. Separately, recombinant human TECK was diluted with chemotaxis buffer (HBSS+0.1% BSA), generally spanning a range from 0.1 nM to 500 nM, after which 29 μl of diluted chemokine was placed in the lower wells of the ChemoTX® plate. The 5-μm (pore size) polycarbonate membrane was placed onto the plate, and 20 μL of the cell/compound mixture was transferred onto each well of the membrane. The plates were incubated at 37° C. for 90 minutes, after which the polycarbonate membranes were removed and 5 μl of the DNA-intercalating agent CyQUANT (Invitrogen, Carlsbad, CA) was added to the lower wells. The amount of fluorescence, corresponding to the number of migrated cells, was measured using a Spectrafluor Plus plate reader (TECAN, San Jose, CA).
The A2 values were calculated from the following equation, comparing the efficacy of the test compound with that of the DMSO-only control at equi-active chemokine levels: Log(A2)=log[drug(M)]−log[(A′/A)−1] where A reflects the potency of the agonist in the absence of antagonist and A′ reflects the potency of the agonist in the presence of antagonist at a given concentration of drug ([drug(M)]). In Vivo Efficacy Models for Human IBD

Row | Chemotaxis A2 | Structure (SMILES)
1 | + (20000 nM ≥ A2 ≥ 500 nM) | CC(C)(C)c1ccc(C2(C)C(=O)N(c3cccc(C(=O)O)c3)c3c(Cl)cc(Cl)cc32)cc1 (stereo not shown)
2 | +++ (100 nM > A2) | CC(C)Oc1ccc(C2(C)C(=O)N(c3cccc(C(=O)O)c3)c3ccc(Cl)cc32)cc1 (stereo not shown)
3 | +++ (100 nM > A2) | CC1(C)CCc2cc([C@]3(C)C(=O)N(c4cc(F)cc(C(=O)O)c4)c4ccc(Cl)cc43)ccc2O1
4 | +++ (100 nM > A2) | CC1(C)CCc2cc([C@]3(C)C(=O)N(c4cc(Cl)cc(C(=O)O)c4)c4ccc(Cl)cc43)ccc2O1
5 | ++ (500 nM > A2 ≥ 100 nM) | CC(C)(C)c1ccc(C2(C)C(=O)N(c3cc(C(=O)O)ccc3F)c3ccc(Cl)cc32)cc1 (stereo not shown)
6 | +++ (100 nM > A2) | CC1(C)CCc2cc([C@]3(C)C(=O)N(c4cccc(CCC(=O)O)c4)c4ccc(Cl)cc43)ccc2O1
7 | +++ (100 nM > A2) | CC1(C)CCc2cc([C@]3(C)C(=O)N(c4ccc(Cl)c(C(=O)O)c4)c4ccc(Cl)cc43)ccc2O1
8 | +++ (100 nM > A2) | COc1cc(N2C(=O)[C@@](C)(c3ccc4c(c3)CCC(C)(C)O4)c3cc(Cl)ccc32)ccc1C(=O)O
9 | +++ (100 nM > A2) | COc1cccc(CN2C(=O)[C@@](C)(c3ccc4c(c3)CCC(C)(C)O4)c3cc(Cl)ccc32)c1C(=O)O
10 | +++ (100 nM > A2) | CC1(C)Cc2cc(C3(C)C(=O)N(c4cccc(C(=O)O)c4)c4ccc(Cl)cc43)ccc2O1 (stereo not shown)
11 | +++ (100 nM > A2) | Cc1ccc(N2C(=O)[C@@](C)(c3ccc(C(C)(C)C)cc3)c3cc(Cl)ccc32)cc1C(=O)O
12 | +++ (100 nM > A2) | CC(C(=O)O)c1cccc(N2C(=O)[C@@](C)(c3ccc4c(c3)CCC(C)(C)O4)c3cc(Cl)ccc32)c1 (stereo partly shown)
13 | +++ (100 nM > A2) | CCOc1ccc(N2C(=O)[C@@](C)(c3ccc4c(c3)CCC(C)(C)O4)c3cc(Cl)ccc32)cc1C(=O)O
14 | +++ (100 nM > A2) | CC(C)Oc1ccc(C2(C)C(=O)N(c3ccc(C(=O)O)cc3)c3ccc(Cl)cc32)cc1 (stereo not shown)
15 | ++ (500 nM > A2 ≥ 100 nM) | CC(C)(C)c1ccc(C2(C)C(=O)N(c3cncc(C(=O)O)c3)c3ccc(Cl)cc32)cc1 (stereo not shown)
16 | +++ (100 nM > A2) | CC1(C)CCc2cc([C@]3(C)C(=O)N(c4ccc(Cn5nn[nH]c5=O)cc4)c4ccc(Cl)cc43)ccc2O1 [(S)-5-chloro-3-(2,2-dimethylchroman-6-yl)-3-methyl-1-(4-((5-oxo-4,5-dihydro-1H-tetrazol-1-yl)methyl)phenyl)indolin-2-one]
17 | +++ (100 nM > A2) | CC(C)Oc1ccc(N2C(=O)[C@@](C)(c3ccc4c(c3)CCC(C)(C)O4)c3cc(Cl)ccc32)cc1C(=O)O
18 | +++ (100 nM > A2) | CC1(c2ccc(C3(C(F)(F)F)CC3)cc2)C(=O)N(c2cccc(C(=O)O)c2)c2ccc(Cl)cc21 (stereo not shown)
19 | +++ (100 nM > A2) | CC1(C)CCc2cc([C@]3(C)C(=O)N(Cc4cccc(Cl)c4C(=O)O)c4ccc(Cl)cc43)ccc2O1
20 | +++ (100 nM > A2) | CC1(C)CCc2cc([C@]3(C)C(=O)N(c4ccc(C(=O)O)c(F)c4)c4ccc(Cl)cc43)ccc2O1
21 | +++ (100 nM > A2) | CC1(C)CCc2cc(C3(C)C(=O)N(c4cccc(C(=O)O)c4)c4ccc(C#N)cc43)ccc2O1 (stereo not shown)
22 | ++ (500 nM > A2 ≥ 100 nM) | CC(C)(C)c1ccc(C2(C)C(=O)N(c3ccnc(C(=O)O)c3)c3ccc(Cl)cc32)cc1 (stereo not shown)
23 | +++ (100 nM > A2) | CC(C)COc1ccc(N2C(=O)[C@@](C)(c3ccc4c(c3)CCC(C)(C)O4)c3cc(Cl)ccc32)cc1C(=O)O
24 | +++ (100 nM > A2) | Cc1cc(CN2C(=O)[C@@](C)(c3ccc4c(c3)CCC(C)(C)O4)c3cc(Cl)ccc32)ccc1C(=O)O
25 | +++ (100 nM > A2) | CC1(C)CCc2cc([C@]3(C)C(=O)N(c4ccc(CCCC(=O)O)cc4)c4ccc(Cl)cc43)ccc2O1
26 | +++ (100 nM > A2) | CC1(C)CCc2cc([C@]3(C)C(=O)N(c4ccc(OCC(=O)O)cc4)c4ccc(Cl)cc43)ccc2O1

Row | Chemotaxis A2 | Structure (SMILES)
27 | +++ (100 nM > A2) | Cc1cccc(C(=O)O)c1CN1C(=O)[C@@](C)(c2ccc3c(c2)CCC(C)(C)O3)c2cc(Cl)ccc21
28 | +++ (100 nM > A2) | CC1(C)CCc2cc([C@]3(C)C(=O)N(c4ccc(C(F)(F)F)c(C(=O)O)c4)c4ccc(Cl)cc43)ccc2O1
29 | +++ (100 nM > A2) | CC1(C)CCc2cc([C@]3(C)C(=O)N(Cc4ccccc4C(=O)O)c4ccc(Cl)cc43)ccc2O1
30 | +++ (100 nM > A2) | CC1(C)CCc2cc(C3(C)C(=O)N(c4cccc(C(=O)O)c4)c4cc(Cl)c(Cl)cc43)ccc2O1 (stereo not shown)
31 | +++ (100 nM > A2) | COc1ccc(CN2C(=O)[C@@](C)(c3ccc4c(c3)CCC(C)(C)O4)c3cc(Cl)ccc32)cc1C(=O)O
32 | +++ (100 nM > A2) | Cc1ccc2c(c1)[C@](C)(c1ccc3c(c1)CCC(C)(C)O3)C(=O)N2c1cccc(C(=O)O)c1
33 | +++ (100 nM > A2) | CC1(C)CCc2cc(C3(C)C(=O)N(c4cccc(C(=O)O)c4)c4ccc(C5CC5)cc43)ccc2O1 (stereo not shown)
34 | +++ (100 nM > A2) | CC1(C)CCc2cc([C@]3(C)C(=O)N(Cc4ccc(F)c(C(=O)O)c4)c4ccc(Cl)cc43)ccc2O1
35 | ++ (500 nM > A2 ≥ 100 nM) | CC(C)(C)c1ccc(C2(C)C(=O)N(c3cccc(C(=O)O)n3)c3ccc(Cl)cc32)cc1 (stereo not shown)
36 | ++ (500 nM > A2 ≥ 100 nM) | Cc1ccc2c(c1)C(C)(c1ccc(C(C)(C)C)cc1)C(=O)N2c1ccc(C(=O)O)cc1 (stereo not shown)
37 | ++ (500 nM > A2 ≥ 100 nM) | COc1cccc(C(=O)O)c1CN1C(=O)[C@@](C)(c2ccc3c(c2)CCC(C)(C)O3)c2cc(Cl)ccc21
38 | ++ (500 nM > A2 ≥ 100 nM) | Cc1ccc2c(c1)C(C)(c1ccc(C(C)(C)C)cc1)C(=O)N2c1cccc(C(=O)O)c1 (stereo not shown)
39 | +++ (100 nM > A2) | CC(C)(C)c1ccc(C2(C)C(=O)N(c3cc(C(=O)O)ccn3)c3ccc(Cl)cc32)cc1 (stereo not shown)
40 | +++ (100 nM > A2) | Cc1ccc2c(c1)[C@](C)(c1ccc3c(c1)CCC(C)(C)O3)C(=O)N2c1ccc(C(=O)O)cc1
41 | +++ (100 nM > A2) | CC1(C)CCc2cc(C3(C)C(=O)N(Cc4ccc(C(=O)O)cc4)c4ccc(Cl)cc43)ccc2O1 (stereo in doubt) [4-[[(3R)-5-chloro-3-(2,2-dimethylchroman-6-yl)-3-methyl-2-oxo-indolin-1-yl]methyl]benzoic acid]
42 | ++ (500 nM > A2 ≥ 100 nM) | CC(C)(F)c1ccc(C2(C)C(=O)N(c3cccc(C(=O)O)c3)c3ccc(Cl)cc32)cc1 (stereo not shown)
43 | +++ (100 nM > A2) | CC1(C)CCc2cc([C@]3(C)C(=O)N(c4cccc(OCC(=O)O)c4)c4ccc(Cl)cc43)ccc2O1
44 | +++ (100 nM > A2) | CC1(C)CCc2cc([C@]3(C)C(=O)N(c4cccc(CC(=O)O)c4)c4ccc(Cl)cc43)ccc2O1
45 | +++ (100 nM > A2) | CCc1ccc2c(c1)C(C)(c1ccc3c(c1)CCC(C)(C)O3)C(=O)N2c1cccc(C(=O)O)c1 (stereo not shown)
46 | ++ (500 nM > A2 ≥ 100 nM) | CC(C)(C)c1ccc(C2(C)C(=O)N(c3ccc(C(=O)O)cc3F)c3ccc(Cl)cc32)cc1 (stereo not shown)
47 | +++ (100 nM > A2) | CC(C)(C)c1ccc([C@]2(C)C(=O)N(c3ccc(F)c(C(=O)O)c3)c3ccc(Cl)cc32)cc1
48 | +++ (100 nM > A2) | CC1(C)CCc2cc(C3(C)C(=O)N(c4cccc(C(=O)O)c4)c4ccc(OC(F)(F)F)cc43)ccc2O1 (stereo not shown)
49 | +++ (100 nM > A2) | Cc1ccc(N2C(=O)[C@@](C)(c3ccc4c(c3)CCC(C)(C)O4)c3cc(Cl)ccc32)cc1C(=O)O
50 | +++ (100 nM > A2) | Cn1nnn(Cc2ccc(N3C(=O)[C@@](C)(c4ccc5c(c4)CCC(C)(C)O5)c4cc(Cl)ccc43)cc2)c1=O [(S)-5-chloro-3-(2,2-dimethylchroman-6-yl)-3-methyl-1-(4-((4-methyl-5-oxo-4,5-dihydro-1H-tetrazol-1-yl)methyl)phenyl)indolin-2-one]
51 | +++ (100 nM > A2) | CC1(C)CCc2cc([C@]3(C)C(=O)N(c4ccc(F)c(C(=O)O)c4)c4ccc(Cl)cc43)ccc2O1
52 | +++ (100 nM > A2) | CC1(c2ccc(C3(C)C(=O)N(c4cccc(C(=O)O)c4)c4ccc(Cl)cc43)cc2)CC1 (stereo not shown)
